This is an account of results in patent US20260137664A1, “THERAPEUTIC AGENT FOR INTRACTABLE LYMPHATIC DISEASE AND INTRACTABLE VASCULAR DISEASE” (NATIONAL UNIVERSITY CORPORATION TOKAI NATIONAL HIGHER …, priority 2022, published 2026).

The nature of this data set: Population pharmacokinetic (PPK) analysis, nonlinear mixed effects model, two-compartment model. The format is in vivo, patients and healthy adults. From the text: The memory unit 12 stores pre-constructed PK (pharmacokinetics) model information. Specifically, it stores a blood concentration calculation formula for the active ingredient sirolimus when the drug is repeatedly administered, a parameter calculation formula for calculating parameters corresponding to patient information, and pre-constructed estimated values of pharmacokinetic parameters. The blood concentration calculation formula is a formula that expresses the blood sirolimus concentration based on a two-compartment model. The parameters corresponding to patient information are parameters used in the blood concentration calculation formula, and are standard parameters for estimating the blood sirolimus concentration of patients who have the same patient information (also referred to as “patient background”). In this document, these are referred to as “standard PK parameters”.
Here, ka is the absorption rate constant (h−1), Cl/F is the clearance (L/h), V1/F is the volume of the first compartment (L), V2/F is the volume of the second compartment (L), and Q/F is the intercompartmental clearance […]. The values of these parameters are related to the patient's weight and age, the dosage form of the administered drug, and the presence or absence of concomitant use of a CYP3A4 inhibitor or CYP3A4 inducer. Di is the dose of the drug.
Each parameter in the blood concentration calculation formula is expressed as a function with the patient's weight and age, the dosage form of the drug, etc. as variables. This function corresponds to the parameter calculation formula for calculating the parameters corresponding to the patient. This parameter calculation formula is obtained in advance by population pharmacokinetic analysis using a nonlinear mixed effects model.
In formula (2), TVka is the typical value of the absorption rate constant ka, and is obtained in advance by population pharmacokinetic analysis. In this embodiment, the point estimate of TVKa is 0.235 (h−1), the relative error is 1.17%, and the 95% confidence interval is 0.229-0.240.
In formula (3), TVCl is a typical value of clearance Cl/F, and is obtained in advance by population pharmacokinetic analysis. In this embodiment, the point estimate of TVCl is 6.44 (L/h), the relative error is 6.04%, and the width of the 95% confidence interval is 5.72-7.25. WT is the patient's body weight. PMA (Post menstrual age) is the age after the last menstrual period (gestational age+postnatal age) and corresponds to the patient's age. e^ηCL represents inter-individual variation. When there is no actual measured value for the patient, ηCL is 0, and the inter-individual variation is 1. “Clinical trials assay” refers to a blood sample stored frozen, and in the case of a blood sample stored frozen, it is multiplied by 1.92. In the case of a blood sample stored refrigerated, it is multiplied by 1. “CYP3A4 fold change” is a coefficient that is determined according to the concomitant drug when there is a concomitant drug. The coefficient will be described later with reference to FIG. 9.
In formula (4), TVV1 is a typical value of the volume of the first compartment V1/F, and is obtained in advance by population pharmacokinetic analysis. In the embodiment, the point estimate of TVV1 is 176 (L), the relative error is 2.43%, and the width of the 95% confidence interval is 168-185. WT is the patient's body weight. eηV1 represents inter-individual variation. When there is no actual measured value for the patient, ηV1 is 0, and the inter-individual variation is 1. Depending on the information that can be obtained, it may be difficult to estimate the random effect of the patient on V1, and in such a case, the inter-individual variation for V1 may be set to 1 for all patients.
In formula (5), TVV2 is the typical value of the volume of the second compartment V2/F, and is determined in advance by population pharmacokinetic analysis. […]

In the case of `CO[C@H]1C[C@@H]2CC[C@@H](C)[C@@](O)(O2)C(=O)C(=O)N2CCCC[C@H]2C(=O)O[C@H]([C@H](C)C[C@@H]2CC[C@@H](O)[C@H](OC)C2)CC(=O)[C@H](C)/C=C(\C)[C@@H](O)[C@@H](OC)C(=O)[C@H](C)C[C@H](C)/C=C/C=C/C=C/1C` [sirolimus], the “TVka, typical value of the absorption rate constant ka (point estimate)” value (population pharmacokinetic analysis, relative error 1.17%, 95% confidence interval 0.229-0.240) is 0.235 h⁻¹. For the same compound, the “TVV1, typical value of the volume of the first compartment V1/F (point estimate)” value (population pharmacokinetic analysis, relative error 2.43%, 95% confidence interval 168-185) is listed as 176 L. Moreover, the TVQ, typical value of the intercompartmental clearance Q/F (point estimate) (population pharmacokinetic analysis, relative error 4.07%, 95% confidence interval 31.0-36.3) was 33.6 L/h. Besides, under “population pharmacokinetic analysis, relative error 6.04%, 95% confidence interval 5.72-7.25”, the “TVCl, typical value of clearance Cl/F (point estimate)” value was 6.44 L/h. Moreover, the “TVV2, typical value of the volume of the second compartment V2/F (point estimate)” value (population pharmacokinetic analysis, relative error 13%, 95% confidence interval 218-362) is 281 L. Further, where the note is “when the drug is a granule (Granule formulation), formula (2)”, the “factor by which TVka is multiplied” value stood at 4.26.
